Assay results from US8765692B2, “Modified-galactosyl ceramides for staining and stimulating natural killer T cells” (The Scripps Research Institute, priority 2006, dated 2014).

Legend:
Solubility in DMSO = format: physicochemical; conditions: for solubility: 20 °C, organic solvent or mixture; for solubility (in words): relative to KRN7000 or fully saturated compounds
Method: As with most glycolipids, solubility issues are central to handling the compounds. Compounds are usually solubilized in DMSO, and then diluted to working concentrations in aqueous solutions. […] In suitable embodiments, the compounds of the invention are at least about 10 mg/mL in DMSO under ambient conditions (approximately 20° C.). In more suitable embodiments, the compounds of the invention are at least about 20 mg/mL in DMSO at ambient temperature. In further suitable embodiments, the compounds of the invention are at least 80%, at least two-fold, or at least 4-fold relative to the solubility of KRN7000 in DMSO at ambient temperature.

[1] = test system: NKT cells (B6 mouse splenocytes); experiment: Cytokine release in vitro from mouse splenocytes (IL-4 and IFNγ ELISA); format: cell-based; conditions: for concentration at which cytokine responses plateau: 5×10^5 B6 splenocytes, IL-4 and IFNγ ELISA, FIG. 6
Method: To determine if PBS-57 stimulated cytokine release by NKT cells in vitro, 5×10^5 mouse splenocytes isolated from B6 mice were incubated in separate wells with 10^5, 10^4, 10^3, 100, 10 and 1 pg/mL of PBS-57 or KRN7000 in RPMI 1640 media supplemented with 10% FBS, 50 μM 2-mercaptoethanol, 2 mM glutamine and antibiotics. After 48 hours, IL-4 and IFNγ levels were measured by ELISA (BD Pharmingen).

Vα14i NKT cells = experiment: Staining of Vα14i NKT cells with glycolipid-loaded mouse CD1d tetramers (flow cytometry); format: cell-based; conditions: summary statement, compared with KRN7000
Method: An typical means to isolate and quantify CD1 responsive NKT cells is through flow cytometry using fluorophore tagged CD1d tetramers loaded with sphingoglycolipids. To test for the ability of PBS-57 to facilitate CD1d tetramer staining, glycolipid-loaded CD1d tetramers were formed. Biotinylated mouse sCD1d molecules (in PBS) were mixed with PBS-57 or KRN7000 at a molar ratio of 1:3 (protein:lipid) and incubated overnight at room temperature. The following day, 80 μg of streptavidin-PE (Pharmagen) was added to 200 μg of the CD1-glycolipid mix and incubated at room temperature for 4 hours. Tetramers were stored at 4° C. until use.
Single cell suspensions of thymocytes and splenocytes were isolated from C57BL/6J mice (Jackson Laboratories, Bar Harbor, Me.) as known in the art. The TCR repertoire of the NKT cells was limited with an invariable Vα subunit (Vα14 in mice) and varied Vβ subunits. 10^6 cells were incubated with 200 μL staining media (2% BSA, 1% NaN3, 10 mM EDTA in PBS) with 2.4G2 (1:100; ATCC, Manassas, Va.) and Neutravidin (5 μg/200 μl; Molecular Probes, Eugene, Oreg.) for 20 minutes on ice. […] Cells were washed twice in staining media, fixed with 1% paraformaldehyde in PBS and analyzed by flow cytometry.

NKT cell hybridomas = experiment: Binding of PBS-57 loaded CD1d tetramers to NKT cell hybridomas expressing different Vβ; format: cell-based; conditions: hybridomas with different Vβ TCR, 37° C. 4 hours, FIG. 4
Method: The TCR expressed on NKT cells are limited to a invariant Vα subunit, and a variable Vβ subunit that respond to glycolipid presentation by CD1d. To determine if PBS-57 loaded tetramers were Vβ subunit specific in their ability to bind, NKT cell hybridomas expressing different Vβ were tested for their ability to bind PBS-57 loaded CD1d tetramers.
For staining of NKT cell hybridomas, soluble CD1d (sCD1d) tetramers were loaded with PBS-57 or KRN7000 by the following procedure. Stock reagents of the following were prepared: sCD1d (1 mg/ml in phosphate buffer saline (PBS)); PBS-57 (1 mg/ml in DMSO); Tween 20 (0.5% in PBS); and streptavidin-APC (80 μg/mL in PBS). 10 μL sCD1d stock, 1 μL PBS-57 stock, and 10 μL Tween 20 stock were mixed, and 79 μL PBS was added to bring the volume up to 100 μL. […] To separate unbound glycolipid, the mixture was applied to a Microcon YM30 filter (Millipore) that has been previously wetted with PBS (400 μL). The loaded membrane was centrifuged until only ˜10 μL of solution remained. The volume was then increased to 100 μL by addition of PBS. The solution was agitated to aid in freeing the protein from the filter. The Microcon unit was inverted into a fresh Eppendorf tube and the contents were centrifuged into the tube. A 10 μL aliquot of the solution was removed and the streptavidin-APC solution (5 μL) was added. […]

NKT cells [2] = experiment: CD1d tetramer staining of NKT cells in human blood samples; format: cell-based; conditions: PBS-57 loaded mouse and human CD1d tetramers
Text: (§1) To test whether PBS-57 could facilitate NKT cell binding in blood samples of both human and non-human primates, mouse and human CD1d tetramers were loaded with PBS-57 as described in Example 2. A majority of the human blood samples contained sufficient NKT cells (>0.08% of CD3-positive cells) to observe staining (14 out of 17 samples), while some samples may have contained too few NKT cells to allow detection of staining (Lee et al., 2002).

NKT cells [3] = experiment: CD1d tetramer staining of NKT cells in chimpanzee blood samples; format: cell-based; conditions: PBS-57 loaded CD1d tetramers
Text: as §1

NKT cells [4] = experiment: CD1d tetramer staining of NKT cells in rhesus macaque blood samples; format: cell-based; conditions: rhesus macaques, 12 samples
Text: as §1

NKT cells [5] = experiment: CD1d tetramer staining of NKT cells in pigtail macaque blood samples; format: cell-based; conditions: pigtail macaques
Text: as §1

NKT cells [6] = experiment: CD1d tetramer staining of NKT cells in sooty mangabey blood samples; format: cell-based; conditions: sooty mangabeys
Text: as §1

NKT cells [7] = experiment: Cytokine release in vivo: serum INF-γ after intravenous injection; set-up: species or system mouse
Method: To examine if PBS-57 elicited an immune response in vivo, the ability of PBS-57 and KRN7000 to elicit an increase in cytokine levels in a mouse was assayed. 1 mg/ml stock solutions of PBS-57 and KRN7000 in DMSO were prepared. The PBS-57 and KRN7000 solutions were diluted with PBS to 1, 100, 10^4, and 10^6 pg/mL. 100 μL of each solution was injected intravenously into 6 week-old B6 mice. Serum samples were isolated from the mice at 24 hours, and the concentration of INF-γ was assayed by ELISA (BD Pharmingen).

Structure (SMILES)	solubility (Solubility in DMSO) [mg/mL]	solubility (in words) (Solubility in DMSO)	concentration at which cytokine responses plateau ([1]; 48 hours)	solubility (Solubility in DMSO; molar value printed in parentheses) [mM]	staining of mouse and human NKT cells (summary) (Vα14i NKT cells)	effect of Vβ subunit variation on binding of loaded CD1d tetramers (NKT cell hybridomas)	blood samples with observable NKT cell staining (NKT cells [2])	blood samples with significant NKT cell staining (NKT cells [3])	share of blood samples with significant NKT cell staining (NKT cells [4])	NKT cell staining in blood samples (NKT cells [5])	NKT cell staining in blood samples (NKT cells [6])	Th1 and Th2 cytokine secretion ([1]; B6 splenocytes, 48 hours)	NKT cell stimulation in vitro relative to KRN7000 ([1]; summary statement, in vitro)	serum INF-γ concentration relative to KRN7000 (NKT cells [7]; B6 mice, intravenous, 100 μL of 1 to 10^6 pg/mL, serum at 24 hours, FIG. 7)	NKT cell stimulation in vivo relative to KRN7000 (NKT cells [7]; summary statement, in vivo)
CCCCCCCCCCCCCCCCCCCCCCCCCC(=O)N[C@@H](CO[C@H]1O[C@H](CO)[C@H](O)[C@H](O)[C@H]1O)[C@H](O)[C@H](O)CCCCCCCCCCCCCC [KRN7000, reference compound]	< 5	relatively poor solubility in either aqueous or organic solvents	~1000 pg/mL	–	–	–	–	–	–	–	–	–	–	–	–
CCCCCCCCC=CCCCCCCCCCCCCCC(=O)N[C@@H](OC1OC(CNC(C)=O)C(O)C(O)C1O)C(O)[C@H](O)CCCCCCCCCCCCCC (stereo partly drawn) [PBS-57]	20	relatively high solubility	approximately 100 pg/mL	22.4	as well as KRN7000	did not affect the binding	14 out of 17	6 out of 10	one quarter	No staining	No staining	able to induce both Th1 and Th2 cytokine secretion	stimulates NKT cells more effectively than KRN7000	equal to or greater than KRN7000	stimulates NKT cells more effectively than KRN7000
